Measurements published in PubChem BioAssay AID1963441 (Molecular Pharmacology Branch, DTP, NCI, 2024).
“And” between values parts separate entries of the source, which are not always exact repeats. Equal values may be shown once.

Test system: NCI-H1876 complex spheroid growth, % test/control
Assay: Anticancer human tumor NCI-H1876 cell line growth inhibition [Asc];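 note: compound exposure lasted 7 days starting three days after seeding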;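 for viability, T/C: 100% = DMSO vehicle control wells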
Settings: for viability, T/C: stronger effect = lower value
Method in brief: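 Stromal components (HUVEC and hMSC) are co-assembled with the cancer cells into multicellular spheroids. Drugs are then added singly or paired, at concentrations falling by half-log increments from a clinically achievable maximum, capped at 10 microM without known Cmax.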

With `NC(=O)C(=Cn1cnc(-c2cc(C(F)(F)F)cc(C(F)(F)F)c2)n1)c1cncnc1` + CCN1C(C(=O)NC23CCC(C(=O)O)(CC2)CC3)C(c2cccc(Cl)c2F)C2(C(=O)Nc3cc(Cl)ccc32)C12CCCCC2 the IC50 (curve of first compound, second compound 0.00949 µM) was > 300 nM, the IC50 (curve of first compound, second compound 0.03 µM) was > 300 nM and the IC50 (curve of first compound, second compound 0.0949 µM) was > 300 nM. For the same molecule, the IC50 (curve of first compound, second compound 0.3 µM) was > 300 nM, the IC50 (curve of first compound, second compound 0.949 µM) was > 300 nM and the IC50 (curve of first compound, second compound 3 µM) was > 300 nM. The viability, T/C (second compound 0.00949 µM, first compound 0.000949 µM) was 104%, the viability, T/C (second compound 0.00949 µM, first compound 0.003 µM) was 102% and the viability, T/C (second compound 0.00949 µM, first compound 0.00949 µM) was 115%. It also gave a viability, T/C (second compound 0.00949 µM, first compound 0.03 µM) of 94%, a viability, T/C (second compound 0.00949 µM, first compound 0.0949 µM) of 100% and a viability, T/C (second compound 0.00949 µM, first compound 0.3 µM) of 64.8%. The viability, T/C (second compound 0.03 µM, first compound 0.000949 µM) was 101%, the viability, T/C (second compound 0.03 µM, first compound 0.003 µM) was 99.3% and the viability, T/C (second compound 0.03 µM, first compound 0.00949 µM) was 96.6%. It also gave a viability, T/C (second compound 0.03 µM, first compound 0.03 µM) of 101%, a viability, T/C (second compound 0.03 µM, first compound 0.0949 µM) of 96.2% and a viability, T/C (second compound 0.03 µM, first compound 0.3 µM) of 63.7%. For the same molecule, the viability, T/C (second compound 0.0949 µM, first compound 0.000949 µM) was 101%, the viability, T/C (second compound 0.0949 µM, first compound 0.003 µM) was 102% and the viability, T/C (second compound 0.0949 µM, first compound 0.00949 µM) was 100%. The viability, T/C (second compound 0.0949 µM, first compound 0.03 µM) was 98.5%, the viability, T/C (second compound 0.0949 µM, first compound 0.0949 µM) was 102% and the viability, T/C (second compound 0.0949 µM, first compound 0.3 µM) was 71.2%. For the same molecule, the viability, T/C (second compound 0.3 µM, first compound 0.000949 µM) was 103%, the viability, T/C (second compound 0.3 µM, first compound 0.003 µM) was 104% and the viability, T/C (second compound 0.3 µM, first compound 0.00949 µM) was 103%. The viability, T/C (second compound 0.3 µM, first compound 0.03 µM) was 103%, the viability, T/C (second compound 0.3 µM, first compound 0.0949 µM) was 105% and the viability, T/C (second compound 0.3 µM, first compound 0.3 µM) was 69.6%. The viability, T/C (second compound 0.949 µM, first compound 0.000949 µM) was 124%, the viability, T/C (second compound 0.949 µM, first compound 0.003 µM) was 104% and the viability, T/C (second compound 0.949 µM, first compound 0.00949 µM) was 104%. It also gave a viability, T/C (second compound 0.949 µM, first compound 0.03 µM) of 114%, a viability, T/C (second compound 0.949 µM, first compound 0.0949 µM) of 101% and a viability, T/C (second compound 0.949 µM, first compound 0.3 µM) of 68.5%. It also gave a viability, T/C (second compound 3 µM, first compound 0.000949 µM) of 109%, a viability, T/C (second compound 3 µM, first compound 0.003 µM) of 97.4% and a viability, T/C (second compound 3 µM, first compound 0.00949 µM) of 104%. The viability, T/C (second compound 3 µM, first compound 0.03 µM) was 94.8%, the viability, T/C (second compound 3 µM, first compound 0.0949 µM) was 96.1% and the viability, T/C (second compound 3 µM, first compound 0.3 µM) was 55%.

For `NC(=O)C(=Cn1cnc(-c2cc(C(F)(F)F)cc(C(F)(F)F)c2)n1)c1cncnc1`, the viability, T/C (compound 0.000949 µM) was 104% and 99.4% (2×), the viability, T/C (compound 0.003 µM) was 90.3% and 91.5% and 85.9% and the viability, T/C (compound 0.00949 µM) was 93.9% and 92.5% and 90.8%. The viability, T/C (compound 0.03 µM) was 92.4% and 98.6% and 97.9%, the viability, T/C (compound 0.0949 µM) was 97.5% and 80.5% and 104% and the viability, T/C (compound 0.3 µM) was 74.8% and 77.2% and 94.8%. The IC50 (curve of compound) was > 300 nM.
